Results on 6 molecules are retold here after PMC12818446 (ACS chemical biology, 2025).

SMILES strings stand for the structures. Values after ≈ are worked out from the molar mass of the structure shown. Values joined by “and” are separate entries in the source; they are usually repeats but may differ in a detail not shown here. Identical values can stand only once. Like-named read-outs stand apart in the source and are kept apart here. A value given as a limit tells only on which side of the number the result lay.

One experiment has as its system M. tuberculosis H37Rv. The experiment can be described thus: MIC, microplate Alamar blue assay. The conditions noted are these: Mycobacterium tuberculosis. In kind it is cell-based. (Alamar Blue is a resazurin reagent that responds to reducing activity.)
In experiment [1] the test system is M. tuberculosis H37Rv_LuxABCDE. As to the kind of experiment: Post-antibiotic effect, autobioluminescent strain. In kind it is cell-based, Mycobacterium tuberculosis.
The subject of a further experiment is M. tuberculosis. The note with it: cited from earlier work.
For experiment [2], the system named is E. coli ATCC25922. The experiment can be described thus: MIC, visible growth in 96-well plates. Type of experiment: cell-based, Escherichia coli.
The target of experiment [3] is T1, ecLeuRS (Escherichia coli, UniProt P07813). The experiment can be described thus: SPR single-cycle kinetics, BAP-ecLeuRS in the presence of AMP. Type of experiment: binding. The conditions noted are these: for Kd/IC50: ratio of SPR Kd (AMP) and IC50 after 1 h preincubation; for kon: read-out: SPR kon.
T1 sequence (P07813 whole entry): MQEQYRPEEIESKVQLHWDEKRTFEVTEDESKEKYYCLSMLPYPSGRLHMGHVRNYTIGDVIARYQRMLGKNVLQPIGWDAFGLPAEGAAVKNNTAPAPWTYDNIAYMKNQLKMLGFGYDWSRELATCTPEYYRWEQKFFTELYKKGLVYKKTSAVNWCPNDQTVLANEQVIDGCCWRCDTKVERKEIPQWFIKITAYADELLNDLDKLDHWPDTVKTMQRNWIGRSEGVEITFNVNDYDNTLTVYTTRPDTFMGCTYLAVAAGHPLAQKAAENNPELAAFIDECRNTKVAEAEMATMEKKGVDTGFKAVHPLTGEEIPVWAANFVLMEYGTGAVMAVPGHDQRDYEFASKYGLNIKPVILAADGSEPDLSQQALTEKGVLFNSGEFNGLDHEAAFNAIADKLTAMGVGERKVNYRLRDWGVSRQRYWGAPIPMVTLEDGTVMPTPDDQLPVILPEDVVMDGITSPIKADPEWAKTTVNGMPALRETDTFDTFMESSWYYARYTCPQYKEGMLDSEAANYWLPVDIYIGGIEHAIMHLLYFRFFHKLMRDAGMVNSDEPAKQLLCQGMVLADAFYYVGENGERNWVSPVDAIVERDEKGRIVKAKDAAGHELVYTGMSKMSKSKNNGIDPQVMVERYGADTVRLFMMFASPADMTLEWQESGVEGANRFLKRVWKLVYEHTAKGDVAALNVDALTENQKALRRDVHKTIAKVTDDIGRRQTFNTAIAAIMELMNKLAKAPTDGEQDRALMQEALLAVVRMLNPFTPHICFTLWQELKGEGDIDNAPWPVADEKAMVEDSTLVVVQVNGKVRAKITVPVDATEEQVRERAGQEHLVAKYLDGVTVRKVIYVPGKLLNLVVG
Experiment [4] has as its target T1, ecLeuRS. The note with it: cited from earlier work.
The test system of experiment [5] is E. coli ATCC25922. The experiment can be described thus: Checkerboard MIC assay and FIC index. Type of experiment: cell-based, Escherichia coli. The note with it: for MIC: Escherichia coli.
For experiment [6], the target named is T2, ecLeuRS D342E (Escherichia coli, UniProt P07813, D342E). The experiment can be described thus: biochemical. Type of experiment: binding.
T2 sequence (P07813 whole entry D342E): as the sequence (P07813 whole entry) above, with D342E counted along it
Experiment [7] relates to human mitochondrial LeuRS. The conditions noted are these: read-out: reported IC50; cited from earlier work.
Experiment [8] has as its target T3, mtLeuRS (Mycobacterium tuberculosis, UniProt P9WFV1). As to the kind of experiment: biochemical. The note with it: IC50, 1 h preincubation, 1 h preincubation with enzyme and mttRNA^Leu.
The test system of experiment [9] is E. coli ATCC25922. The experiment can be described thus: Time-kill assay. In kind it is cell-based, Escherichia coli. The conditions noted are these: combination of ganfeborole and Nva, M9 medium.
The target of experiment [10] is T1, ecLeuRS. The experiment can be described thus: LeuRS aminoacylation-activity assay. In kind it is biochemical. The note with it: IC50, 1 h preincubation, 1 h preincubation with enzyme and ectRNA^Leu.
Experiment [11] concerns the target T3, mtLeuRS. The conditions noted are these: mtLeuRS in the presence of AMP; cited from earlier work.
In experiment [12] the target is T2, ecLeuRS D342E. The experiment can be described thus: biochemical. In kind it is biochemical.
Experiment [13] concerns the target T3, mtLeuRS. Type of experiment: binding.
A further experiment concerns E. coli ΔtolC and ΔacrAB. In kind it is cell-based, Escherichia coli.
In experiment [14] the test system is E. coli mutant strains (ecLeuRS D342E, G333D, D345N, V335D). As to the kind of experiment: microbe, parasite or virus in culture. Type of experiment: cell-based, Escherichia coli.
Another experiment has as its system human cytoplasmic LeuRS. The conditions noted are these: read-out: reported IC50; cited from earlier work.
[15] abbreviates: 1xMIC exposure for 2.5 h, 10,000-fold dilution.
Setting [16] is: 10xMIC exposure for 2.5 h, 10,000-fold dilution.
[17] abbreviates: 30xMIC exposure for 2.5 h, 10,000-fold dilution.
[18] abbreviates: 50xMIC exposure for 2.5 h, 10,000-fold dilution.

T3 sequence (P9WFV1 whole entry): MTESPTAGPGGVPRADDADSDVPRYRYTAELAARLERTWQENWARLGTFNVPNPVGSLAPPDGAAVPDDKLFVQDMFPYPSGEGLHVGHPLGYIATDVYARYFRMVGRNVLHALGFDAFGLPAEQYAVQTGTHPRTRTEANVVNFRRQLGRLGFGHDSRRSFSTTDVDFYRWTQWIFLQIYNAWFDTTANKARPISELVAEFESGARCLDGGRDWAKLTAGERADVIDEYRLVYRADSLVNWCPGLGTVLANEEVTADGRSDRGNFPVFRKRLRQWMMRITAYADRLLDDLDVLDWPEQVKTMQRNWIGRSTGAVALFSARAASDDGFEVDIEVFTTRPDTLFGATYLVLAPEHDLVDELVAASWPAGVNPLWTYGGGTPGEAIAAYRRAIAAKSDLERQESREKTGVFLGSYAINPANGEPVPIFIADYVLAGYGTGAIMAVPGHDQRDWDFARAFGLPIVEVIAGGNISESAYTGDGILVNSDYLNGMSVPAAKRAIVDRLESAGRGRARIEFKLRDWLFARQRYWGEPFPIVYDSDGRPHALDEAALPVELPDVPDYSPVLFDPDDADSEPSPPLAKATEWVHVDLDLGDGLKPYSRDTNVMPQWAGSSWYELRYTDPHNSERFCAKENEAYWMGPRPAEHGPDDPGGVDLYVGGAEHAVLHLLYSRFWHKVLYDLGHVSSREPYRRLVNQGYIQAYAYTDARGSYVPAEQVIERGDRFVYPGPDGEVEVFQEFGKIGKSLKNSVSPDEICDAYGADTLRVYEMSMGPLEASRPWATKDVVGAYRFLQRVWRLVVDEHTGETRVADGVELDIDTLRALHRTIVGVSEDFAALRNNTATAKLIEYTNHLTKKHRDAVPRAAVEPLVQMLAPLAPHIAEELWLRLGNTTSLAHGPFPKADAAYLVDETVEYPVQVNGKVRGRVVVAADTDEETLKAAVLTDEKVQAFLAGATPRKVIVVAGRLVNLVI

Regarding `CO[C@H]1/C=C/O[C@@]2(C)Oc3c(C)c(O)c4c(O)c(c(/C=N/N5CCN(C)CC5)c(O)c4c3C2=O)NC(=O)/C(C)=C\C=C\[C@H](C)[C@H](O)[C@@H](C)[C@@H](O)[C@@H](C)[C@H](OC(C)=O)[C@@H]1C` [Rifampicin], the MIC in the experiment on M. tuberculosis H37Rv was 0.04 µM (≈ 0.0329 µg/mL). For the same molecule, in experiment [1], the “PAE 1xMIC” value worked out at 22 ± 1 h; the “PAE 10xMIC” value was found to be 30 ± 2 h; the “PAE 30xMIC” value came to 36 ± 3 h; the “PAE 50xMIC” value was 72 h and 72 ± 4 h. In the experiment with M. tuberculosis, the PAE is 68 to 77 h.
`NC[C@H]1OB(O)c2c(OCCCO)cccc21` [Epetraborole] returned an MIC against E. coli ATCC25922 [2] (Escherichia coli, ATCC25922) of 1.56 µM (≈ 0.37 µg/mL). Moreover, at ecLeuRS [3], the Kd turned out to be 1100 ± 71 nM and the kon is 62000 ± 33000 M⁻¹ s⁻¹. The Kd/IC50 on ecLeuRS [3] (ecLeuRS) turned out to be 367. On ecLeuRS [4] (ecLeuRS with tRNA^Leu), the residence time is reported as 23 h.
In the case of `CCC[C@H](N)C(=O)O` [Nva, L-Norvaline], the “effect on bacterial growth, no effect up to” value in the experiment on E. coli ATCC25922 [2] (Nva alone, E. coli) was more than 200 µM. The MIC was found to be 25 µM in the experiment on E. coli ATCC25922 [5] (ATCC25922, read-out: MIC of Nva with 6.4 μM ganfeborole, E. coli ATCC25922, in the presence of 3.1 μM Leu) and 1600 µM in the experiment with E. coli ATCC25922 [5] (ATCC25922, read-out: MIC of Nva with 6.4 μM ganfeborole, E. coli ATCC25922, with 200 μM Leu).
`NC[C@H]1OB(O)c2c(OCCO)ccc(Cl)c21` [Ganfeborole, (S)-3-(Aminomethyl)-4-chloro-7-(2-hydroxyethoxy)benzo[c][1,2]oxaborol-1(3H)-ol]: the MIC was 0.058 µM (≈ 0.0149 µg/mL) against M. tuberculosis H37Rv; more than 1000 µM in the experiment with E. coli ATCC25922 [2] (E. coli wild-type, Table 4 (CAMH medium)); more than 1000 µM with E. coli ATCC25922 [2] (Escherichia coli, ATCC25922); 0.4 µM in the experiment on E. coli ATCC25922 [5] (ATCC25922, read-out: MIC of ganfeborole + 12.5 μM Nva, E. coli ATCC25922, M9 media, + 12.5 μM Nva); 1600 µM in the experiment with E. coli ATCC25922 [5] (ATCC25922, read-out: MIC of ganfeborole + 100 μM Nva + 100 μM Leu, E. coli ATCC25922, M9 media, + 100 μM Nva + 100 μM Leu); 1.56 µM (≈ 0.402 µg/mL) in experiment [14]. Moreover, in experiment [14] (Escherichia coli, read-out: MIC, four mutant strains together), the MIC was in the range of 1.56 to 6.25 µM (≈ 0.402 to 1.61 µg/mL). Besides, the Kd on ecLeuRS D342E [6] was 1700 ± 197 nM; at mtLeuRS [11] it was 10.4 nM; on ecLeuRS [3], 17 ± 1 nM. Also, the Kd/IC50 at ecLeuRS D342E [6] stood at 85; on ecLeuRS [3] (ecLeuRS), 8.5; at mtLeuRS [13] (ratio of SPR Kd (AMP) and IC50 after 1 h preincubation) it was 7. Moreover, the results for the koff on ecLeuRS D342E [6] (read-out: SPR koff) and on ecLeuRS [3] (read-out: SPR koff) were 0.07 ± 0.0071 s⁻¹ and 0.00016 ± 1e-05 s⁻¹, respectively. The values for the kon at ecLeuRS D342E [6] (read-out: SPR kon) and at ecLeuRS [3] were 42000 ± 1000 M⁻¹ s⁻¹ and 9500 ± 500 M⁻¹ s⁻¹, respectively. The residence time came to 0.24 ± 0.02 min on ecLeuRS D342E [6] (read-out: SPR tR (residence time)) and 100 min at ecLeuRS [3] (read-out: SPR tR (residence time), ecLeuRS, in the presence of AMP). Besides, the 50% inhibitory concentration (IC50) is more than 300000 nM in experiment [7]; 1 ± 0.1 nM against mtLeuRS [8]; 2 ± 0.1 nM against ecLeuRS [10]; 278 ± 19 nM at ecLeuRS D342E [12] (IC50, 2 min preincubation); 60 ± 4 nM against ecLeuRS D342E [12] (IC50, 20 min preincubation); 20 ± 2 nM against ecLeuRS D342E [12] (IC50, 1 h preincubation). The IC50 with human cytoplasmic LeuRS was 132000 nM. The “antibacterial activity towards E. coli, no activity up to” value in the experiment with E. coli ATCC25922 [2] (wild-type E. coli) is more than 1 mM. Besides, the time-kill result in the experiment with E. coli ATCC25922 [9] is given as “cidality”. In [1] (setting [15]), the “PAE 1xMIC” value is recorded as 0 h. Besides, the “PAE 10xMIC” value in experiment [1] (setting [16]) is given as 32 ± 2 h. The “PAE 30xMIC” value in experiment [1] (setting [17]) is reported as 39 ± 2 h. The “PAE 50xMIC” value stood at 77 ± 4 h in [1] (setting [18]) and 77 h in experiment [1] (50xMIC exposure for 2.5 h, 10,000-fold dilution, listed as ganfeborole). For the same molecule, the “fold more potent binding than compound 1” value is 30-40 fold on ecLeuRS [3] (ecLeuRS, SPR with AMP) and ~ 50 fold at mtLeuRS [13] (SPR with AMP). At ecLeuRS [3] (ecLeuRS, in the presence of AMP), the “SPR tR (residence time)” value came out at 104 ± 5 min. Besides, the “fold increase in IC50, D342E mutant versus ecLeuRS” value on ecLeuRS D342E [12] is recorded as 10 fold. Besides, the “MIC / antibacterial activity in efflux pump mutant strains” value in the experiment with E. coli ΔtolC and ΔacrAB is “no antibacterial activity”. Besides, the “antibacterial activity, no activity up to” value in the experiment on E. coli ΔtolC and ΔacrAB is reported as more than 1 mM. In addition, the “fold decrease in the MIC of ganfeborole on addition of Nva” value in the experiment with E. coli ATCC25922 [5] (E. coli, 12.5 μM Nva) is on record as more than 1000 fold. Further, in the experiment with E. coli ATCC25922 [5] (checkerboard of Nva and ganfeborole, E. coli ATCC25922), the FICI is reported as less than 0.5.
On to `NCC1OB(O)c2c(OCCCO)cccc21` (centres unmarked) [AN3213], for which the reported residence time on ecLeuRS [4] (ecLeuRS and tRNA^Leu) is 23 h.
With `NNC(=O)c1ccncc1` [Isoniazid], the MIC with M. tuberculosis H37Rv stood at 0.23 µM (≈ 0.0315 µg/mL). Besides, the “PAE at any concentration” value in [1] (1x to 50xMIC) was “no detectable PAE”. Besides, the “PAE 1xMIC” value in [1] (setting [15]) was determined as 0 h. For the same molecule, the “PAE 10xMIC” value in experiment [1] (setting [16]) was 0 h. The “PAE 30xMIC” value in experiment [1] (setting [17]) was 0 h. Besides, the “PAE 50xMIC” value in [1] (setting [18]) is listed as 0 h.

What is called Kd is the equilibrium constant for the complex coming apart. Usually kon stands for the rate constant with which the complex forms. The koff is the rate constant with which the complex falls apart. As usually defined, the IC50 is the concentration needed to halve the response being measured.
